Measurements as given in PubChem BioAssay (NCI).
Where “and” joins values, the source holds several entries; their conditions need not be identical. Equal values may be shown once.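 Where inhibition never reached the appropriate level, the endpoint shown equals the highest concentration tested. Otherwise, values were interpolated linearly from a five-concentration, 48-hour dose response in 96-well plates. The concentration for 50% growth inhibition is given as GI50. At the TGI there is no net growth.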

Columns and labels:
Assay in all cases: DTP human tumour cell line panel, 48 h
K-562 leukemia = test system: K-562 leukemia
NCI-H460 lung = test system: NCI-H460 lung
MDA-MB-435 = test system: MDA-MB-435
NCI-H522 lung = test system: NCI-H522 lung
OVCAR-3 ovarian = test system: OVCAR-3 ovarian
SF-268 CNS = test system: SF-268 CNS
IGROV1 ovarian = test system: IGROV1 ovarian
M19-MEL melanoma = test system: M19-MEL melanoma
CCRF-CEM leukemia = test system: CCRF-CEM leukemia
DLD-1 colon = test system: DLD-1 colon

SMILES	GI50 (K-562 leukemia)	GI50 (NCI-H460 lung)	TGI (NCI-H460 lung)	GI50 (MDA-MB-435)	GI50 (NCI-H522 lung)	TGI (NCI-H522 lung)	GI50 (OVCAR-3 ovarian)	GI50 (SF-268 CNS) [nM]	TGI (SF-268 CNS)	GI50 (IGROV1 ovarian)	TGI (IGROV1 ovarian)	TGI (M19-MEL melanoma)	GI50 (CCRF-CEM leukemia) [nM]	TGI (DLD-1 colon)	TGI (K-562 leukemia)	TGI (OVCAR-3 ovarian)	TGI (CCRF-CEM leukemia)	TGI (MDA-MB-435)	GI50 (M19-MEL melanoma) [nM]	GI50 (DLD-1 colon) [nM]
COC(=O)C[C@](O)(CCCC(C)(C)O)C(=O)O[C@@H]1C(OC)=C[C@]23CCCN2CCc2cc4c(cc2[C@H]13)OCO4	29.2 nM	16 nM and < 10 nM	270 nM and 88 nM	27.9 nM	48.2 nM and < 10 nM	186 nM and 28.8 nM	251 nM and 28.6 nM	46	990 nM and 446 nM	28.4 nM	1400 nM and 795 nM	86.6 nM	28.2	228 nM	–	–	–	–	–	–
CC(C)C(CCl)NC(=O)c1cccc(C(=O)N[C@H](CCl)C(C)C)n1 (stereo in doubt)	–	–	> 100000 nM	–	–	> 100000 nM	–	–	> 100000 nM	–	> 100000 nM	> 100000 nM	–	> 100000 nM	> 100000 nM	> 100000 nM	> 100000 nM	–	–	–
CC12C/C(=C\c3ccccc3)C(=O)C3C1CCCC32	–	–	> 100000 nM	–	–	> 100000 nM	–	–	> 100000 nM	–	> 100000 nM	> 100000 nM	–	> 100000 nM	> 100000 nM	> 100000 nM	> 100000 nM	–	–	–
Nc1nc(Cl)cc(NCCCCCCCCNc2cc(Cl)nc(N)n2)n1	–	–	> 100000 nM	–	–	37200 nM	–	–	> 100000 nM	–	> 100000 nM	> 100000 nM	–	> 100000 nM	> 100000 nM	> 100000 nM	> 100000 nM	–	–	–
COc1cccc2c1C(=O)c1c(O)c3c(c(O)c1C2=O)C[C@@](O)(C(=O)CO)C[C@@H]3OC1CC(N)CC(C)O1 (some centres undefined)	24.3 nM and 41.4 nM	–	421 nM and 192 nM	131 nM and 32.7 nM	33.9 nM	179 nM and 303 nM	102 nM	51.5	461 nM and 937 nM	50.4 nM and 43.6 nM	1250 nM and 1600 nM	186 nM and 174 nM	< 12.5	1180 nM and 2670 nM	783 nM and 406 nM	1110 nM and 1220 nM	374 nM and 159 nM	283 nM and 156 nM	36.3	127
CCOC(=O)c1cnc2c(ccc3[nH]n(C)nc32)c1=O	–	–	> 100000 nM	–	–	> 100000 nM	–	–	> 100000 nM	–	> 100000 nM	> 100000 nM	–	> 100000 nM	> 100000 nM	> 100000 nM	> 100000 nM	–	–	–
